“Also recorded” adds a separate entry of the source.
Assays:
Eμ-Myc transgenic mice = test: Eμ-Myc mouse model of lymphomagenesis; assay type: in vivo; details: 20 mg/kg weekly i.p. from 6 weeks of age
Procedure: To evaluate the efficacy of PES as a chemopreventative agent, Eμ-Myc transgenic mice were injected every 5 days, starting at 8 weeks of age, with either vehicle or PES (40 mg/kg) prepared in PBS. All animals received a total of 7 injections, either with PES or vehicle. Consequently, no injection was given after day 86. All mice were observed daily for signs of morbidity and the development of lymphoma. All experiments with mice were approved by, and conformed to, the guidelines of the Institutional Animal Care and Use Committee of the Fox Chase Cancer Center. These mice may also be used to advantage to test the beneficial therapeutic combinations of agents and/or treatments described herein.
Beginning at 6 weeks of age, Eμ-myc transgenic mice were treated either with vehicle, 20 mg/kg PES or 20 mg/kg PES-Cl with weekly i.p. injections of tested compound (FIG. 27).

[1] = test system: SKBR3 human breast adenocarcinoma cells; test: MTT assay; assay type: cell-based; details: various concentrations, 72 hours
Procedure: SKBR3 human breast adenocarcinoma cells were seeded and treated with PES and PES-Cl at various concentrations.

Scc56 cell line = test: MTT cell viability assay, PES-Cl with Temsirolimus; assay type: cell-based, human; details: singly and together, varying concentrations
Procedure: PES-Cl was tested in combination with Temsirolimus, an mTOR inhibitor, to determine whether they act synergistically to kill cells. Head and neck cancer cells of the Scc56 cell line were treated with PES-Cl and Temsirolimus, singly and together, at varying concentrations utilizing an MTT assay.

[2] = test system: H1299 and FaDu; 6113 and WI38; test: MTT assay, tumorogenic versus normal fibroblast cell lines; assay type: cell-based, human; details: various concentrations, 48 hours
Procedure: (§1) H1299 cells were seeded on […] and treated with 10 μM PES or 10 μM PES-Cl. DMSO treated cells were used as a control and the proliferation of the H1299 cells was observed over 24 and 48 hours of treatment. The cells were imaged by light microscopy with 20× magnification (FIG. 28). Non-tumorogenic and tumorogenic cells were then treated with PES-Cl to observe its toxicity and effect on proliferation. Two tumorogenic cell lines (H1299 and FaDu) and two normal fibroblast cell lines (6113 and WI38) were seeded on a 96-well plate. The cells were treated with various concentrations of PES and PES-Cl. Forty-eight hours post-treatment MTT assays (Cayman Chemical Company) were performed (FIG. 29).

H1299 cells [3] = test: Proliferation observed by light microscopy; assay type: cell-based, human; details: 10 μM, 24 and 48 hours
Procedure: as §1

HSP70 = HSP70 (Homo sapiens, UniProt P0DMV8); test: Capture of HA-tagged HSP70 constructs from transfected H1299 cells with biotinylated compound; assay type: binding; set-up: expressed in transfected cells; host or cells: H1299; details: biotinylated compound, 6 hours
Procedure: FIG. 1. PES Binds to HSP70. (A) Whole cell extracts (WCE) prepared from A875 and BCL-xL over-expressing U2OS human osteosarcoma cells (BX-U2OS) cells, treated with Biotin or Biotin-PES (B-PES), were captured using NeutrAvidin agarose resins. HSP70-family proteins were identified as the major product in the excised band of ˜70 kDa shown in both Coomassie gels. (B and C) WCE were prepared from the cell lines indicated following 24 h treatment with 20 μM Biotin or B-PES and examined for the expression of proteins indicated (left panel of B and C) by western blot analysis; note that different exposure times were used to visualize these proteins. […] (D) In vitro evidence for an interaction between B-PES and HSP70. Full-length human HSP70 and human HSP90 proteins were in vitro translated in the presence of ^35S-methionine, mixed with B-PES coupled to NeutrAvidin resins, and eluted using 100 mM DTT. The resulting DTT eluates were separated by polyacrylamide gel electrophoresis (SDS-PAGE) and visualized by autoradiography. (E) B-PES interacts with the C-terminal region of HSP70. H1299 cells were transfected with the indicated hemagglutinin (HA)-tagged constructs and exposed to B-PES. B-PES containing complexes were captured by NeutrAvidin Resins, eluted following 100 mM DTT treatment, and immunoblotted with anti-HA antibody following SDS-PAGE. (F) Non-transformed human IMR90 fibroblasts or H1299 lung carcinoma cells were treated with the indicated concentrations of PES for 24 h and cell viability was determined by MTT assays. (G) WCE were prepared from the cell lines indicated following 5 hr treatment with 20 μM PES or B-PES and examined for the expression of proteins indicated (left panel) by western blot analysis; note that different exposure times were used to visualize these proteins. B-PES-containing complexes were captured by NeutrAvidin resins, eluted following 50 mM DTT treatment, and immunoblotted using the indicated antibodies.
The free amide group of PES-Cl was biotinylated and added to HA-tagged HSP70-transfected H1299 cells. The treatment of the cells occurred for 6 hours. The complexes were pulled down with NeutrAvidin beads, eluted with 100 mM DTT treatments, separated with SDS-PAGE and detected with anti-HA antibody (Millipore) by Western blot.
Docking studies were performed using the C-terminal HSP70 crystal structure (FIG. 32) to elucidate the PES binding site in silico (FIG. 33). Blind docking methods were used in the program AutoDock to locate potential PES binding sites. These methods use a course grid docking approach, encompassing the entire protein, to identify favorable binding sites using a known binding ligand, and are examined by hand to support the AutoDock data. […]

H1299 and FaDu cells = test: Western blot of autophagy and apoptosis markers; assay type: cell-based, human; details: 10 μM, 24, 48 and 72 hours
Procedure: Tumorogenic cells H1299 and FaDu cells were seeded in 10 cm plates and were treated with 10 μM PES or 10 μM PES-Cl. DMSO treated cells were used as a vehicle treated control. Twenty-four, 48 and 72 hours post-treatment the cells were scrapped and protein extracts were generated. Western blotting was performed as described hereinabove. The antibodies used in the protocol were p62 (Santa Cruz), Hsp70 (Cell Signaling), cleaved lamin A (Cell Signaling), Hsp40 (Cell Signaling), γH2A.X (Millipore), and actin (Sigma).

H1299 cells [4] = test: Guava Nexin assay (Annexin V / 7-AAD); assay type: cell-based, human; details: 10 μM, 4, 24 and 48 hours
Source text: (§2) The effect of PES-Cl on apoptosis was observed using Guana Nexin Reagent (Millipore) in H1299 and FaDu cells. The Guana Nexin Assay utilizes Annexin V-PE to detect phosphatidylserine (PS) on the external membrane of apoptotic cells. The cell impermeant dye, 7-AAD, is also used in the Guava Nexin Assay as an indicator of cell membrane structural integrity. 7-AAD is excluded from live, healthy cells as wells as early apoptotic cells. Three populations of cells can be distinguished in the assay: Non-Apoptotic cells (Annexin V(−) and 7-AAD(−)), Early Apoptotic cells (Annexin V(+) and 7-AAD(−)), and Late Stage Apoptotic and dead cells (Annexin V(+) and 7-AAD(+)). The H1299 and FaDu cells were seeded on 24-well plates and treated with 10 μM PES or 10 μM PES-Cl. DMSO treated cells were used as a vehicle control. Four, 24 and 48 hours post-treatment, the H1299 cells were washed with PBS and trypsinized. For FaDu cells, the time course was 24, 48 and 72 hours. The cells were pelleted and resuspended in Guava Nexin reagent as per the manufacturer instructions and the readings were obtained with a Guava reader (Guava Technologies, Millipore). The total number of cells that were in Late Stage Apoptosis or dead (by necrotic or apoptotic mechanisms) was analyzed in density plots to determine as Annexin V positive.

FADU cells = test: Guava Nexin assay (Annexin V / 7-AAD); assay type: cell-based, human; details: 10 μM, 24, 48 and 72 hours
Source text: as §2

HSP70, sequence (P0DMV8 2-641): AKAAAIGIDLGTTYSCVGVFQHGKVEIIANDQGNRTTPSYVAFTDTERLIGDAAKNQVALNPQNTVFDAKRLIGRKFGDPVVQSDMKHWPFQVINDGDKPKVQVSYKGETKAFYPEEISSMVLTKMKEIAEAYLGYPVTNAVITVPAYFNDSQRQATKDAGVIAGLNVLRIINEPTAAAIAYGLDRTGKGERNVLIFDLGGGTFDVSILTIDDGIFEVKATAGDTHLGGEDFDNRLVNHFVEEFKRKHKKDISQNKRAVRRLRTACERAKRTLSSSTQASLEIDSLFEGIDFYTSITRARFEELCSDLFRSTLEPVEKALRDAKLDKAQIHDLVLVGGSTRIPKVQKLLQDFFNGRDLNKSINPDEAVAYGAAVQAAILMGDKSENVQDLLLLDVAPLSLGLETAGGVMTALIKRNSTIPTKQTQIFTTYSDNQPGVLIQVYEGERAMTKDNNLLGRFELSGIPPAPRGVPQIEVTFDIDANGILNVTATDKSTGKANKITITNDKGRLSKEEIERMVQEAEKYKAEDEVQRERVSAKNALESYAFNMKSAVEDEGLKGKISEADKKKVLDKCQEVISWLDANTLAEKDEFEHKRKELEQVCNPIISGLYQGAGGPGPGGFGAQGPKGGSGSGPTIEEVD

NS(=O)(=O)C#Cc1cccc(Cl)c1 [PES-Cl, 2-(3-chlorophenyl)-ethynesulfonamide]
survival (Eμ-Myc transgenic mice): extended survival | cytotoxicity compared to PES [1]: superior cytotoxic agent when compared to PES | combination effect with Temsirolimus (Scc56 cell line): synergistic effect resulting in enhanced dose-dependent cytotoxicity | cell survival, tumorogenic versus non-tumorogenic cells [2]: greater concentration dependent effect on cell survival in tumorogenic cells; also recorded: superior and specific inhibitor of proliferation of tumor cells with limited toxicity to normal cells | proliferation (H1299 cells [3]): inhibits the proliferation of H1299 cells | interaction with HA-tagged HSP70 (HSP70): interact with HSP70 | apoptosis (H1299 and FaDu cells): induced apoptosis | autophagy (H1299 and FaDu cells): inhibited autophagy | apoptosis and cell death (Annexin V positive cells) (H1299 cells [4]): induced apoptosis and cell death; also recorded: superior compound for induction of apoptosis | apoptosis and cell death (Annexin V positive cells) (FADU cells): induced apoptosis and cell death; also recorded: superior compound for induction of apoptosis

— US9296687B2, “Modulators of HSP70/DnaK function and methods of use thereof” (The Trustees of the University of Pennsylvania, priority 2008, dated 2016)
